Test results taken from US20260262643A1, “HERBICIDAL BENZOXAZINES” (FMC CORPORATION, priority 2022, published 2026).

Experiments:
barnyardgrass [1] = assay: Test D flooded paddy test; assay type: in vivo, Echinochloa crus-galli; settings: 250 g ai/ha, applied to paddy water, visual rating after 13 to 14 days, scale 0 to 100 (0 no effect, 100 complete control)
Experimental: (§1) Plant species in the flooded paddy test selected from barnyardgrass (Echinochloa crus-galli), ducksalad (Heteranthera limosa), rice (Oryza sativa), and sedge, umbrella (small-flower umbrella sedge, Cyperus difformis) were grown to the 2-leaf stage for testing. At time of treatment, test pots were flooded to 3 cm above the soil surface, treated by application of test compounds directly to the paddy water, and then maintained at that water depth for the duration of the test. Treated plants and controls were maintained in a greenhouse for 13 to 14 days, after which time all species were compared to controls and visually evaluated. Plant response ratings, summarized in Table D, are based on a scale of 0 to 100 where 0 is no effect and 100 is complete control. A dash (-) response means no test result.

ryegrass, Italian [2] = assay: Test C preemergence; assay type: in vivo, Lolium multiflorum; settings: 0 to 100 scale (0 no effect, 100 complete control); for Ryegrass, Italian plant response rating: Test C, preemergence, 125 g ai/ha
How it was run: (§2)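 Pre: seeds in loam/sand, directed soil spray. Post: 1–2 leaf plants, 2–10 cm. Cmpd in non-phytotoxic solvent + surfactant. Greenhouse 10 d; visual rating vs untreated, 0 = none, 100 = complete control.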

corn [3] = assay: Test C preemergence; assay type: in vivo, Zea mays; settings: 0 to 100 scale (0 no effect, 100 complete control); for Corn plant response rating: Test C, preemergence, 125 g ai/ha
How it was run: as §2

green foxtail = assay: Test C preemergence; assay type: in vivo, Setaria viridis; settings: 0 to 100 scale (0 no effect, 100 complete control); for Foxtail, Green plant response rating: Test C, preemergence, 125 g ai/ha
How it was run: as §2

ragweed [4] = assay: Test C preemergence; assay type: in vivo, Ambrosia artemisiifolia; settings: 0 to 100 scale (0 no effect, 100 complete control); for Ragweed plant response rating: Test C, preemergence, 125 g ai/ha
How it was run: as §2

soybean [5] = assay: Test C preemergence; assay type: in vivo, Glycine max; settings: 0 to 100 scale (0 no effect, 100 complete control); for Soybean plant response rating: Test C, preemergence, 125 g ai/ha
How it was run: as §2

blackgrass [6] = assay: Test C postemergence; assay type: in vivo, Alopecurus myosuroides; settings: 10 days
How it was run: as §2

oat, wild [7] = assay: Test C postemergence; assay type: in vivo, Avena fatua; settings: 10 days
How it was run: as §2

ryegrass, Italian [8] = assay: Test C postemergence; assay type: in vivo, Lolium multiflorum; settings: 10 days
How it was run: as §2

ducksalad = assay: Test D flooded paddy test; assay type: in vivo, Heteranthera limosa; settings: 250 g ai/ha, applied to paddy water, visual rating after 13 to 14 days, scale 0 to 100 (0 no effect, 100 complete control)
Experimental: as §1

ragweed [9] = assay: Test C postemergence; assay type: in vivo, Ambrosia artemisiifolia; settings: 10 days
How it was run: as §2

horseweed = assay: Test C postemergence; assay type: in vivo, Erigeron canadensis; settings: 10 days
How it was run: as §2

wheat [10] = assay: Test C postemergence; assay type: in vivo, Triticum aestivum; settings: 10 days
How it was run: as §2

barnyardgrass [11] = assay: Test C postemergence; assay type: in vivo, Echinochloa crusgalli; settings: 10 days
How it was run: as §2

pigweed, palmer [12] = assay: Test C postemergence; assay type: in vivo, Amaranthus palmeri; settings: 10 days
How it was run: as §2

galium = assay: Test C postemergence; assay type: in vivo, Galium aparine; settings: 10 days
How it was run: as §2

barnyardgrass [13] = assay: Test C preemergence; assay type: in vivo, Echinochloa crusgalli; settings: 0 to 100 scale (0 no effect, 100 complete control); for Barnyardgrass plant response rating: Test C, preemergence, 125 g ai/ha
How it was run: as §2

kochia [14] = assay: Test C preemergence; assay type: in vivo, Bassia scoparia; settings: 0 to 100 scale (0 no effect, 100 complete control); for Kochia plant response rating: Test C, preemergence, 125 g ai/ha
How it was run: as §2

wheat [15] = assay: Test C preemergence; assay type: in vivo, Triticum aestivum; settings: 0 to 100 scale (0 no effect, 100 complete control); for Wheat plant response rating: Test C, preemergence, 125 g ai/ha
How it was run: as §2

pigweed, palmer [16] = assay: Test C preemergence; assay type: in vivo, Amaranthus palmeri; settings: 0 to 100 scale (0 no effect, 100 complete control); for Pigweed, Palmer plant response rating: Test C, preemergence, 125 g ai/ha
How it was run: as §2

kochia [17] = assay: Test C postemergence; assay type: in vivo, Bassia scoparia; settings: 10 days
How it was run: as §2

blackgrass [18] = assay: Test C preemergence; assay type: in vivo, Alopecurus myosuroides; settings: 0 to 100 scale (0 no effect, 100 complete control); for Blackgrass plant response rating: Test C, preemergence, 125 g ai/ha
How it was run: as §2

oat, wild [19] = assay: Test C preemergence; assay type: in vivo, Avena fatua; settings: 0 to 100 scale (0 no effect, 100 complete control); for Oat, Wild plant response rating: Test C, preemergence, 125 g ai/ha
How it was run: as §2

corn [20] = assay: Test C postemergence; assay type: in vivo, Zea mays; settings: 10 days
How it was run: as §2

soybean [21] = assay: Test C postemergence; assay type: in vivo, Glycine max; settings: 10 days
How it was run: as §2

sedge, umbrella = assay: Test D flooded paddy test; assay type: in vivo, Cyperus difformis; settings: 250 g ai/ha, applied to paddy water, visual rating after 13 to 14 days, scale 0 to 100 (0 no effect, 100 complete control)
Experimental: as §1

rice = assay: Test D flooded paddy test; assay type: in vivo, Oryza sativa; settings: 250 g ai/ha, applied to paddy water, visual rating after 13 to 14 days, scale 0 to 100 (0 no effect, 100 complete control)
Experimental: as §1

[22] = 125 g ai/ha, postemergence, 0 to 100 scale, 0 no effect, 100 complete control
[23] = Preemergence, 500 g ai/ha, visual rating after 10 days
[24] = Postemergence, 500 g ai/ha, visual 0 to 100 scale (0 no effect, 100 complete control)

## COC[C@H]1CN(C(=O)c2cc(-n3cnc(C(C)(C)C)n3)ccc2OC)c2cccc(Cl)c2O1 [Compound 230]
Barnyardgrass [1]
  Plant response rating, Barnyardgrass (Flood): 15
ryegrass, Italian [2]
  Ryegrass, Italian plant response rating: 80
Corn [3]
  Corn plant response rating: 20
Green foxtail
  Foxtail, Green plant response rating: 100
Ragweed [4]
  Ragweed plant response rating: 60
Soybean [5]
  Soybean plant response rating: 90
Blackgrass [6]; [22]
  Plant response rating, Blackgrass: 40
oat, wild [7]; [22]
  Plant response rating, Oat, Wild: 20
ryegrass, Italian [8]; [22]
  Plant response rating, Ryegrass, Italian: 60
ducksalad
  Plant response rating, Ducksalad (Flood): 70
Ragweed [9]; [22]
  Plant response rating, Ragweed: 90
horseweed; [22]
  Plant response rating, Horseweed: 40
Wheat [10]; [22]
  Plant response rating, Wheat: 40
Barnyardgrass [11]; [22]
  Plant response rating, Barnyardgrass: 60
pigweed, palmer [12]; [22]
  Plant response rating, Pigweed, Palmer: 100
galium; [22]
  Plant response rating, Galium: 100
Barnyardgrass [13]
  Barnyardgrass plant response rating: 60
Kochia [14]
  Kochia plant response rating: 0
Wheat [15]
  Wheat plant response rating: 30
pigweed, palmer [16]
  Pigweed, Palmer plant response rating: 100
Kochia [17]; [22]
  Plant response rating, Kochia: 90
Blackgrass [18]
  Blackgrass plant response rating: 70
oat, wild [19]
  Oat, Wild plant response rating: 50
Corn [20]; [22]
  Plant response rating, Corn: 60
Soybean [21]; [22]
  Plant response rating, Soybean: 100
sedge, umbrella
  Plant response rating, Sedge, Umbrella (Flood): 98

## CCc1ncn(-c2ccc(OC)c(C(=O)N3C[C@H](COC)Oc4c(Cl)cccc43)c2)n1 [Compound 231]
Barnyardgrass [1]
  Plant response rating, Barnyardgrass (Flood): 15
ryegrass, Italian [2]; [23]
  Plant response rating, Ryegrass, Italian: 90
ryegrass, Italian [2]
  Ryegrass, Italian plant response rating: 70
Corn [3]; [23]
  Plant response rating, Corn: 30
Corn [3]
  Corn plant response rating: 10
Green foxtail; [23]
  Plant response rating, Foxtail, Green: 100
Green foxtail
  Foxtail, Green plant response rating: 100
Ragweed [4]; [23]
  Plant response rating, Ragweed: 90
Ragweed [4]
  Ragweed plant response rating: 50
Soybean [5]; [23]
  Plant response rating, Soybean: 70
Soybean [5]
  Soybean plant response rating: 60
Blackgrass [6]; [22]
  Plant response rating, Blackgrass: 80
Blackgrass [6]; [24]
  Plant response rating, Blackgrass: 90
oat, wild [7]; [22]
  Plant response rating, Oat, Wild: 50
oat, wild [7]; [24]
  Plant response rating, Oat, Wild: 90
ryegrass, Italian [8]; [22]
  Plant response rating, Ryegrass, Italian: 90
ryegrass, Italian [8]; [24]
  Plant response rating, Ryegrass, Italian: 100
ducksalad
  Plant response rating, Ducksalad (Flood): 85
Ragweed [9]; [22]
  Plant response rating, Ragweed: 70
Ragweed [9]; [24]
  Plant response rating, Ragweed: 70
horseweed; [22]
  Plant response rating, Horseweed: 60
horseweed; [24]
  Plant response rating, Horseweed: 90
Wheat [10]; [22]
  Plant response rating, Wheat: 50
Wheat [10]; [24]
  Plant response rating, Wheat: 90
Barnyardgrass [11]; [22]
  Plant response rating, Barnyardgrass: 80
Barnyardgrass [11]; [24]
  Plant response rating, Barnyardgrass: 90
pigweed, palmer [12]; [22]
  Plant response rating, Pigweed, Palmer: 90
pigweed, palmer [12]; [24]
  Plant response rating, Pigweed, Palmer: 90
galium; [22]
  Plant response rating, Galium: 100
galium; [24]
  Plant response rating, Galium: 100
Barnyardgrass [13]; [23]
  Plant response rating, Barnyardgrass: 100
Barnyardgrass [13]
  Barnyardgrass plant response rating: 60
Kochia [14]; [23]
  Plant response rating, Kochia: 100
Kochia [14]
  Kochia plant response rating: 90
rice
  Plant response rating, Rice (Flood): 0
Wheat [15]; [23]
  Plant response rating, Wheat: 80
Wheat [15]
  Wheat plant response rating: 40
pigweed, palmer [16]; [23]
  Plant response rating, Pigweed, Palmer: 100
pigweed, palmer [16]
  Pigweed, Palmer plant response rating: 100
Kochia [17]; [22]
  Plant response rating, Kochia: 80
Kochia [17]; [24]
  Plant response rating, Kochia: 90
Blackgrass [18]; [23]
  Plant response rating, Blackgrass: 90
Blackgrass [18]
  Blackgrass plant response rating: 60
oat, wild [19]; [23]
  Plant response rating, Oat, Wild: 80
oat, wild [19]
  Oat, Wild plant response rating: 40
Corn [20]; [22]
  Plant response rating, Corn: 70
Corn [20]; [24]
  Plant response rating, Corn: 90
Soybean [21]; [22]
  Plant response rating, Soybean: 100
Soybean [21]; [24]
  Plant response rating, Soybean: 100
sedge, umbrella
  Plant response rating, Sedge, Umbrella (Flood): 100
